Test results taken from article PMC12040169 (PLOS Biology, 2025).

Assay: in vitro
Conditions: human, hela cells, % viability

| Structure (SMILES) | viability at 28.5 h, 10 µM [%] |
| --- | --- |
| c1ccc(Oc2ccccc2-c2cc(NCCc3c[nH]cn3)ncn2)cc1 [CBK037845] | 82.9 |
| Cn1c(=O)n(C)c2cc(CNC(=O)CC3COCCN3)ccc21 (centres unmarked) [CBK307252] | 103 |
| Cc1cn2c3c(=O)n(CCN4CCCCC4)c(=O)n(C)c3nc2n1CC1CCCO1 (centres unmarked) [CBK269820] | 91.9 |
| CCN(CC)CC1CCCN(C(=O)CCn2ccc3ccncc32)C1 (centres unmarked) [CBK285174] | 85.4 |
| COc1ccc(C2c3c(-c4cc(C)c(C)cc4O)n[nH]c3C(=O)N2Cc2cccnc2)cc1OC (centres unmarked) [CBK268846] | 106 |
| CC1=CC(C)C2(COC(=O)Nc3ccccc3)COC(c3cccnc3)C1C2C (centres unmarked) [CBK262844] | 86.2 |
| Cc1n[nH]c(C)c1Sc1ccccc1/N=C/c1ccc([N+](=O)[O-])cc1 [CBK262045] | 87.4 |
| CCOc1cccc(CNc2nn[nH]n2)c1OCc1ccc(C)cc1 [CBK288127] | 110 |
| O=c1n(C(c2ccccc2)c2ccccc2)ccn1S(=O)(=O)c1ccc2ccccc2c1 [CBK106623] | 94.6 |
| COc1cnc(-c2cnn(C)c2)c(NC(=O)C2CC2)n1 [CBK145328] | 104 |
| CC(=O)Nc1ccc(N2CC(C(=O)O)CC2=O)cc1 (centres unmarked) [CBK287149] | 87.1 |
| CC1(C)NC(=O)N(CC(O)COc2cc3ccccc3cc2C(=O)N2CCCCC2)C1=O (centres unmarked) [CBK019029] | 120 |
| O=C(O)CC1S/C(=N/N=C/c2ccco2)NC1=O (centres unmarked) [CBK261371] | 93.7 |
| COc1ccc([C@@]23CC[C@@H](NC(=O)Nc4c(F)ccc(F)c4Cl)C[C@@H]2N(C)CC3)cc1OC [CBK073769T] | 93 |
| COCc1cc(C)nc(SCC(=O)O)c1C#N [CBK270463] | 88.2 |
| O=c1cc(N2CCOCC2)oc2ccccc12 [CBK008244G] | 71.5 |
| CC(C)(C)OC(=O)NC1CCC(NCc2ccccc2Br)CC1 (centres unmarked) [CBK056684] | 91.5 |
| CCNS(=O)(=O)c1ccc(NC(=O)c2cc(-c3ccccn3)nc3c(C)c(C)ccc23)cc1 [CBK267733] | 97.3 |
| O=C1NCCN1C1CCN(c2ncnc3ccccc23)CC1 [CBK304896] | 83.1 |
| C[C@@H](Cn1nnc2ccccc21)NC(=O)Cc1cccc(F)c1 [CBK282306] | 90.8 |
| Cc1ncccc1COC(=O)N1Cc2ccccc2C1 [CBK200138] | 91.1 |
| COc1ccc(C(NC(=O)c2ccc(Cn3nc(C)cc3C)o2)c2ccccc2)cc1 (centres unmarked) [CBK285578] | 87.8 |

| Structure (SMILES) | viability at 28.5 h, 10 µM [%] |
| --- | --- |
| CN(C)CCNC(=O)c1ccc(-c2ccccc2S(=O)(=O)Nc2ccc(C(=O)O)c(O)c2)cc1 [CBK174050] | 106 |
| COc1ccccc1N1CCN(c2nccc3sc(S(=O)(=O)NCc4ccc(C(F)(F)F)c(F)c4)cc23)CC1 [CBK038270C] | 93.8 |
| COc1ccccc1OCC(O)CN1CCN(C(=O)c2ccccc2)CC1 (centres unmarked) [CBK074386C] | 111 |
| CC1CCc2nn(CCNC(=O)C3CCCC3)c(=O)cc2C1 (centres unmarked) [CBK284484] | 91.1 |
| CC(=O)N1C[C@@H]2CCCCN(CCc3ccc(F)cc3)[C@@H]2C1 [CBK285495] | 112 |
| O=C(COCc1nc2ccccc2[nH]1)N1CCC(c2ccccc2)C1 (centres unmarked) [CBK281840] | 97.7 |
| Clc1ccc(-c2csc(NCc3ccco3)n2)cc1 [CBK058168] | 109 |
| COc1cc(OC)cc(C(=O)Nc2cccc(-c3nc4ccccc4o3)c2)c1 [CBK097706] | 95.5 |
| COC(=O)CC[C@H]1CNC(=O)[C@@H]2[C@@H](CCN2C)N1C [CBK289020] | 95.4 |
| CC(C)(c1ccccc1)c1ccc(OCCCCn2cncn2)cc1 [CBK266405] | 89.5 |
| Cc1noc(C)c1Cn1cc(NS(=O)(=O)c2cccs2)cn1 [CBK044394] | 97.9 |
| CCc1noc(C)c1C(=O)N1CCN(C2CCCC2O)CC1 (centres unmarked) [CBK304869] | 78 |
| O=C(O)CCC1=C2c3ccccc3CCN2C(=O)CC1 [CBK286945] | 108 |
| CC(C)c1ccc(SCCc2ccccn2)cc1 [CBK026575C] | 88.8 |
| O=C(c1ccc(O)cc1)c1ccc(C(=O)O)c(C(=O)O)c1 [CBK261075] | 105 |
| NS(=O)(=O)c1ccccc1Sc1ccccc1 [CBK020524] | 89 |
| N#Cc1ccc(CNC(=O)N2CCCC(C(=O)O)C2)cc1 (centres unmarked) [CBK161352] | 89.5 |
| CSc1nnc(CCCNc2cccc(C#N)n2)n1CC(C)C [CBK306449] | 96.8 |
| CC(C)[C@@H](CO)Nc1nccnc1-c1ccoc1 [CBK036648] | 86.6 |
| Cc1cc(N2CCCC2)c(F)cc1CN1CCC(CO)C1 (centres unmarked) [CBK282916] | 93.6 |
| c1cncc(CNc2nc(-c3cccs3)cn3ccnc23)c1 [CBK066687] | 104 |
| CC1(C)C2CCC1(CS(=O)(=O)N(Cc1ccccc1)Cc1ccccc1)C(=O)C2 (centres unmarked) [CBK266082] | 107 |

| Structure (SMILES) | viability at 28.5 h, 10 µM [%] |
| --- | --- |
| CCn1cc(C(=O)N2CCN(Cc3ccco3)C[C@@H]2C(C)C)c(C)n1 [CBK285488] | 110 |
| O=C(c1n[nH]nc1-c1ccccc1)N1CCCC(C(F)(F)F)C1 (centres unmarked) [CBK164228] | 96.1 |
| CC(C)NC(=O)[C@H]1O[C@H](CCN2CCN(c3ccc(F)cc3)CC2)CC[C@@H]1O [CBK288721] | 98.8 |
| OC(Cn1ccnc1)C1CCCCC1 (centres unmarked) [CBK010092] | 78.3 |
| COC(=O)c1ccccc1NC(=O)CC1Sc2ccccc2NC1=O (centres unmarked) [CBK269400] | 90.2 |
| O=C(CC12CC3CC(CC(C3)C1)C2)Nc1nc[nH]n1 [CBK288208] | 117 |
| COc1cccc([C@H]2CN(C(=O)c3ccccc3)[C@@H]3CCN(Cc4ccccc4F)C[C@H]23)c1 [CBK285608] | 97.6 |
| COc1cccc(-c2ccc(NS(=O)(=O)c3ccc4c(c3)CCC(=O)N4)cc2)c1 [CBK286373] | 87.1 |
| CNS(=O)(=O)c1cccc(C(=O)N(C)Cc2ccsc2)c1 [CBK303993] | 113 |
| CC1CCCCC1NC(=O)CSc1nnc(CN2CCOCC2)n1C (centres unmarked) [CBK266662] | 102 |
| Nc1ncnc(NCCc2c[nH]c3ccccc23)c1[N+](=O)[O-] [CBK267283] | 29.6 |
| Cc1cc2cc(F)ccc2n1CCCN1CCN(c2ccncc2)CC1 [CBK039119G] | 116 |
| N#CCCN(Cc1ccco1)C(=O)c1ccc(NC2CC2)nc1 [CBK304922] | 88.2 |
| O=C(CSc1ccccn1)Nc1ccc2ccccc2c1 [CBK263860] | 101 |
| CCOc1ccc(-c2ncncc2-c2ccccc2)c(O)c1 [CBK288111] | 86.4 |
| O=C(Nc1ccccc1C(=O)c1ccccc1)c1ccccn1 [CBK288150] | 89.1 |
| Cn1nccc1C(=O)C1CCN(C(=O)c2cc3c(s2)CCC3)CC1 [CBK284427] | 78.6 |
| Cc1cc(C(F)(F)F)nn1CCCNC(=O)c1cc(-c2ccccc2)nc2ccccc12 [CBK267755] | 85 |
| O=C(Nc1sc2c(c1C(=O)NCC1CCCO1)CCCC2)c1ccccc1[N+](=O)[O-] (centres unmarked) [CBK264608] | 102 |
| Cc1cc(N2CCCC(N(C)S(=O)(=O)c3cccc(F)c3)CC2)nc(C)n1 (centres unmarked) [CBK285935] | 85.5 |
| CO[C@H]1CC[C@H](C(=O)NC(c2ccccc2)c2nccn2C)CC1 (some centres unmarked) [CBK283852] | 93.8 |
| COC(=O)c1ccc(NS(=O)(=O)c2cccc3cccnc23)cc1 [CBK028694] | 104 |

| Structure (SMILES) | viability at 28.5 h, 10 µM [%] |
| --- | --- |
| COc1cc2c(cc1OC)C(C)N(Cc1cc(C)c(O)c(C)c1)CC2 (centres unmarked) [CBK074659C] | 99.9 |
| CSc1nc(NC(=O)Cc2c[nH]c3ccccc23)cc(N2CCNCC2)n1 [CBK050265T] | 84.4 |
| O=c1[nH]cnc2c1ncn2[C@H]1C[C@@H](O)[C@@H](CO)O1 [CBK201225] | 99.5 |
| Cc1ccc(S(=O)(=O)N(C)CC(=O)OCC(=O)c2ccccc2)cc1 [CBK264329] | 95.1 |
| Cc1cc(NC(=O)C2CCN(C(=O)CNc3ccccc3)CC2)no1 [CBK304297C] | 85.9 |
| CC(=O)Nc1ccc(S(=O)(=O)NC2(C(F)(F)F)NC(=O)N(c3ccc(Cl)cc3)C2=O)cc1 (centres unmarked) [CBK267689] | 95.7 |
| CCNc1nccnc1-c1ccc(O)cc1 [CBK088589] | 108 |
| c1ccc2c(CCN3CCC[C@@H]3CN3CCCC3)c[nH]c2c1 [CBK149104] | 87.4 |
| COc1cc(CN2CCC(C(=O)NC(c3ccc(Cl)cc3)c3ccsc3)CC2)cc(OC)c1 (centres unmarked) [CBK147962] | 95.3 |
| O=C(CSc1nc2ccccc2o1)N1c2ccccc2Sc2ccccc21 [CBK221524] | 97.7 |
| O=C(Nc1nc(-c2cc3ccccc3o2)cs1)c1ccc(F)cc1 [CBK287756] | 114 |
| CCCn1c(=S)[nH]c2cc(C(=O)NCCc3ccc(Cl)cc3)ccc2c1=O [CBK294445] | 88.6 |
| CCOC(=O)C1CCCN(Cc2cccc(Cl)c2Cl)C1 (centres unmarked) [CBK307056] | 85.2 |
| O=C(O)c1ccc(NC2OC(CO)C(O)C2O)cc1 (centres unmarked) [CBK218836] | 95.9 |
| COc1ccc(CN2CCN(CCCc3ccccc3)CC2)c(OC)c1 [CBK263378] | 95.1 |
| CN1CCC2(CC1)OCc1cc(-c3cccnc3)ccc1O2 [CBK061020] | 94.6 |
| Cc1c(C(C)NC(=O)Nc2ccc(F)cc2F)cnn1C (centres unmarked) [CBK266986] | 95.1 |
| CCN1CC2(CCN(Cc3c(F)cccc3F)CC2)c2ccccc21 [CBK136986] | 94 |
| CCOC(=O)c1sc(Sc2nnc(C(F)(F)F)n2C)c2c1CC(C)(C)CC2=O [CBK005649] | 101 |
| COc1ccc(C(C)C)cc1-c1cncc(N(C)CCN(C)C)n1 [CBK065364] | 105 |
| O=C(N[C@H]1CC[C@H](O)CC1)C1(Cc2cc(-c3ccc(F)cc3F)no2)CCOCC1 [CBK286352] | 94.9 |
| O=C(NCc1ccccn1)C1CCC(Cn2c(=S)[nH]c3ccccc3c2=O)CC1 (centres unmarked) [CBK266645] | 95.6 |

Same assay, conditions: human, hela cells, % viability, bulk resorufin, single well

| Structure (SMILES) | viability at 28.5 h, 10 µM [%] |
| --- | --- |
| CC(=O)N1CCC2(CC1)OCc1cc(-c3ccccc3C(=O)O)ccc1O2 [CBK060975] | 92.1 |
